Experimental data: patent US20230243016A1, “APPLICATIONS OF CARBOXYLIC COMPOUND SERVING AS EXTRACTING AGENT AND METAL ION EXTRACTION METHOD” (BOTREE CYCLING SCI & TECH CO., LTD., priority 2020, published 2023)

Legend:
[1] = Extraction performance for trivalent ions (Example 2); type: physicochemical; conditions: 0.1 mol/L in toluene, 0.005 mol/L chloride solution, O/A 1:1
Method: (§1) In the embodiments of the present application, after extraction, a metal ion concentration of the aqueous phase is analyzed using the inductively coupled plasma optical emission spectroscopy (ICP-OES), and a metal ion concentration of the organic phase is calculated by the difference subtraction method.
(§2) The Extractant 195 was dissolved in toluene to prepare a 0.1 mol/L organic phase, and 0.005 mol/L chloride solutions of Fe^3+, Ga^3+, In^3+, Sc^3+, Cr^3+, Al^3+, Lu^3+, Ho^3+, and Gd^3+ were prepared as aqueous phases, respectively.

[2] = Separation coefficients between trivalent ions (Example 2); type: physicochemical
Method: as §1, §2

[3] = Extraction for a magnesium-enriched nickel chloride solution (Example 5); type: physicochemical; conditions: 0.31 mol/L in dodecane; chloride solution 1.33 g/L Ni, 4 g/L Mg; O/A 1:1
Method: as §1
Extractant 191 was dissolved in dodecane to prepare a 0.31 mol/L organic phase, and an aqueous phase was the magnesium-enriched nickel chloride solution containing 1.33 g/L Ni and 4 g/L Mg.

[4] = Extraction performance for non-ferrous metal ions (Example 1); type: physicochemical; conditions: 0.2 mol/L in dodecane, 0.01 mol/L sulfate solution, O/A 1:1
Method: as §1
(§3) Extractant 191 was dissolved in dodecane to prepare a 0.2 mol/L organic phase, and 0.01 mol/L sulfate solutions of Cu^2+, Zn^2+, Cd^2+, Ni^2+, Co^2+, Mn^2+, Ca^2+, Mg^2+, and Li^+ were prepared as aqueous phases, respectively.

[5] = Separation coefficients between non-ferrous metal ions (Example 1, Comparative Example 3); type: physicochemical
Method: as §1, §3
This comparative example differs from Example 1 in that Extractant 191 was replaced with extractant Versatic 10 (commercially available, with an acid content of 98%).

[6] = Back extraction of organic phase loaded with rare earth ions (Example 8); type: physicochemical; conditions: organic phase loaded with 0.10 mol/L Lu; 1.0 mol/L hydrochloric acid; O/A 1:1
[7] = Extraction from a battery material solution (Example 3, Comparative Example 4); type: physicochemical; conditions: 0.6 mol/L in Escaid 110
Method: as §1
Extractant 196 was dissolved in Escaid 110 to prepared a 0.6 mol/L organic phase, and the battery material solution contained Ni (46.20 g/L), Co (20.56 g/L), Mn (23.93 g/L), Ca (0.43 g/L), and Mg (0.21 g/L).
The extractant was dissolved in Escaid 110 and prepared to a 0.6 mol/L organic phase, and a battery material solution contained Ni (46.20 g/L), Co (20.56 g/L), Mn (23.93 g/L), Ca (0.43 g/L), and Mg (0.21 g/L). […] By observing the experimental phenomenon where the extractant exists in the battery material solution system, it can be seen that when the aqueous phase equilibrium pH is greater than 5.33, the phase separation phenomenon becomes worse, the aqueous phase is turbid and viscous, and the organic phase gradually becomes colorless; it can be seen from FIG. 7 that when the aqueous phase equilibrium pH is greater than 5.33, the extraction capability of the extractant for metal ions decreases.

[8] = organic phase loaded with Lu; 4 mol/L hydrochloric acid (general practice); cited from earlier work
[9] = Extraction performance for rare earth ions, mixed chloride solution (Example 4); type: physicochemical; conditions: 2 mol/L in dodecane, O/A 1:1, ammonia saponification
Method: as §1

[10] = Saturation capacity test for Ni^2+ (Example 7); type: physicochemical; conditions: 0.6 mol/L in dodecane, saponified to 60%; repeated contact with 50 g/L NiSO4
Description: The organic phase was back-extracted and the saturation capacity of Extractant 196 for Ni^2+ was obtained to be about 16.9 g/L.

[11] = pH½, Example 1 / Comparative Example 3 system
[12] = aqueous phase equilibrium pH greater than 5.33, O/A 8:1

CCCCCCCC(CCCCC)C(=O)O (stereo not drawn) [Extractant 195]
Extraction pH½ for Al^3+ [1]: 3.60 | Extraction pH½ for Cr^3+ [1]: 3.03 | Extraction pH½ for Ga^3+ [1]: 2.60 | Extraction pH½ for Gd^3+ [1]: 5.46 | Extraction pH½ for Ho^3+ [1]: 5.26 | Extraction pH½ for In^3+ [1]: 2.69 | Extraction pH½ for Lu^3+ [1]: 5.06 | Extraction pH½ for Sc^3+ [1]: 2.97 | Extraction pH½ for Fe^3+ ([1]; pH by 8 mol/L NaOH saponification): 1.94 | Separation coefficients between various ions (all pairs) ([2]; Fe^3+, Ga^3+, In^3+, Sc^3+, Cr^3+, Al^3+, Lu^3+, Ho^3+, Gd^3+): greater than 1 | Separation coefficient Fe^3+ / Al^3+ ([2]; Fe^3+, row Al^3+, Example 2 system): 95499.26 | Separation coefficient Fe^3+ / Cr^3+ ([2]; Fe^3+, row Cr^3+, Example 2 system): 1862.09 | Separation coefficient Fe^3+ / Ga^3+ ([2]; Fe^3+, row Ga^3+, Example 2 system): 95.50 | Separation coefficient Fe^3+ / In^3+ ([2]; Fe^3+, row In^3+, Example 2 system): 177.83 | Separation coefficient Fe^3+ / Sc^3+ ([2]; Fe^3+, row Sc^3+, Example 2 system): 1230.27 | Separation coefficient Ga^3+ / Al^3+ ([2]; Ga^3+, row Al^3+, Example 2 system): 1000.00 | Separation coefficient Ga^3+ / Cr^3+ ([2]; Ga^3+, row Cr^3+, Example 2 system): 19.50 | Separation coefficient Ga^3+ / In^3+ ([2]; Ga^3+, row In^3+, Example 2 system): 1.86 | Separation coefficient Ga^3+ / Sc^3+ ([2]; Ga^3+, row Sc^3+, Example 2 system): 12.88 | Separation coefficient In^3+ / Al^3+ ([2]; In^3+, row Al^3+, Example 2 system): 537.03 | Separation coefficient In^3+ / Cr^3+ ([2]; In^3+, row Cr^3+, Example 2 system): 10.47 | Separation coefficient In^3+ / Sc^3+ ([2]; In^3+, row Sc^3+, Example 2 system): 6.92 | Separation coefficient Cr^3+ / Al^3+ ([2]; column Cr^3+, row Al^3+, Example 2 system): 51.29 | Separation coefficient Ho^3+ / Gd^3+ ([2]; column Ho^3+, row Gd^3+, Example 2 system): 3.98 | Separation coefficient Lu^3+ / Gd^3+ ([2]; column Lu^3+, row Gd^3+, Example 2 system): 15.85 | Separation coefficient Lu^3+ / Ho^3+ ([2]; column Lu^3+, row Ho^3+, Example 2 system): 3.98 | Separation coefficient Sc^3+ / Al^3+ ([2]; column Sc^3+, row Al^3+, Example 2 system): 77.62 | Separation coefficient Sc^3+ / Cr^3+ ([2]; column Sc^3+, row Cr^3+, Example 2 system): 1.51

CCCCCCCCCCC(CCCCCC)C(=O)O (stereo not drawn) [Extractant 191]
Extraction order of nickel and magnesium (FIG. 6) [3]: extracts nickel in order before magnesium | Separation coefficient between nickel and magnesium [3]: about 833 | Extraction pH½ for Ca^2+ [4]: 7.32 | Extraction pH½ for Cd^2+ [4]: 6.38 | Extraction pH½ for Co^2+ [4]: 7.00 | Extraction pH½ for Li^+ [4]: 9.75 | Extraction pH½ for Mg^2+ [4]: 7.59 | Extraction pH½ for Mn^2+ [4]: 7.01 | Extraction pH½ for Ni^2+ [4]: 6.85 | Extraction pH½ for Zn^2+ [4]: 5.91 | Extraction pH½ for Cu^2+ ([4]; pH by 6 mol/L NaOH saponification): 4.49 | Separation coefficient Cd^2+ / Ca^2+ ([5]; Cd^2+, row Ca^2+, Example 1 system): 75.86 | Separation coefficient Cd^2+ / Co^2+ ([5]; Cd^2+, row Co^2+, Example 1 system): 17.38 | Separation coefficient Cd^2+ / Mg^2+ ([5]; Cd^2+, row Mg^2+, Example 1 system): 263.03 | Separation coefficient Cd^2+ / Mn^2+ ([5]; Cd^2+, row Mn^2+, Example 1 system): 18.20 | Separation coefficient Cd^2+ / Ni^2+ ([5]; Cd^2+, row Ni^2+, Example 1 system): 8.71 | Separation coefficient Co^2+ / Ca^2+ ([5]; Co^2+, row Ca^2+, Example 1 system): 4.37 | Separation coefficient Co^2+ / Mg^2+ ([5]; Co^2+, row Mg^2+, Example 1 system): 15.14 | Separation coefficient Co^2+ / Mn^2+ ([5]; Co^2+, row Mn^2+, Example 1 system): 1.05 | Separation coefficients between various ions (all pairs) ([5]; Cu^2+, Zn^2+, Cd^2+, Ni^2+, Co^2+, Mn^2+, Ca^2+, Mg^2+, Li^+): greater than 1 | Separation coefficient Cu^2+ / Ca^2+ ([5]; Cu^2+, row Ca^2+, Example 1 system): 457088.19 | Separation coefficient Cu^2+ / Cd^2+ ([5]; Cu^2+, row Cd^2+, Example 1 system): 6025.60 | Separation coefficient Cu^2+ / Co^2+ ([5]; Cu^2+, row Co^2+, Example 1 system): 104712.85 | Separation coefficient Cu^2+ / Mg^2+ ([5]; Cu^2+, row Mg^2+, Example 1 system): 1584893.19 | Separation coefficient Cu^2+ / Mn^2+ ([5]; Cu^2+, row Mn^2+, Example 1 system): 109647.82 | Separation coefficient Cu^2+ / Ni^2+ ([5]; Cu^2+, row Ni^2+, Example 1 system): 52480.75 | Separation coefficient Cu^2+ / Zn^2+ ([5]; Cu^2+, row Zn^2+, Example 1 system): 691.83 | Extraction order of ions (FIG. 1) ([5]; E%-pH curves, Example 1): extracts nickel and cobalt ions in order before calcium and magnesium | Separation coefficient Ni^2+ / Ca^2+ ([5]; Ni^2+, row Ca^2+, Example 1 system): 8.71 | Separation coefficient Ni^2+ / Co^2+ ([5]; Ni^2+, row Co^2+, Example 1 system): 2.00 | Separation coefficient Ni^2+ / Mg^2+ ([5]; Ni^2+, row Mg^2+, Example 1 system): 30.20 | Separation coefficient Ni^2+ / Mn^2+ ([5]; Ni^2+, row Mn^2+, Example 1 system): 2.09 | Separation coefficient Zn^2+ / Ca^2+ ([5]; Zn^2+, row Ca^2+, Example 1 system): 660.69 | Separation coefficient Zn^2+ / Cd^2+ ([5]; Zn^2+, row Cd^2+, Example 1 system): 8.71 | Separation coefficient Zn^2+ / Co^2+ ([5]; Zn^2+, row Co^2+, Example 1 system): 151.36 | Separation coefficient Zn^2+ / Mg^2+ ([5]; Zn^2+, row Mg^2+, Example 1 system): 2290.87 | Separation coefficient Zn^2+ / Mn^2+ ([5]; Zn^2+, row Mn^2+, Example 1 system): 158.49 | Separation coefficient Zn^2+ / Ni^2+ ([5]; Zn^2+, row Ni^2+, Example 1 system): 75.86 | Separation coefficient Ca^2+ / Mg^2+ ([5]; column Ca^2+, row Mg^2+, Example 1 system): 3.47 | Separation coefficient Mn^2+ / Ca^2+ ([5]; column Mn^2+, row Ca^2+, Example 1 system): 4.17 | Separation coefficient Mn^2+ / Mg^2+ ([5]; column Mn^2+, row Mg^2+, Example 1 system): 14.45 | βNi/Ca (separation coefficient) [5, 11]: 8.71 | βNi/Co (separation coefficient) [5, 11]: 2.00 | βNi/Mg (separation coefficient) [5, 11]: 30.2 | βNi/Mn (separation coefficient) [5, 11]: 2.09 | βNi/Zn (separation coefficient) [5, 11]: 75.86 | Separation coefficients higher compared with Versatic 10 ([5]; same test condition): 20-30%

CCCCCCCCC(CC)C(=O)O (stereo not drawn) [Extractant 192]
Back extraction rate [6]: greater than 99%

CCCCCCCCCCCCCCCCCC(=O)O [stearic acid, reference compound]
Extraction capability for metal ions (FIG. 7) [7, 12]: decreases | Phase separation phenomenon [7, 12]: becomes worse

CCCCC(CC)COP(=O)(O)CC(CC)CCCC (stereo not drawn) [Extractant P507]
Primary back extraction rate [8]: about 80%

CCCCCCCCC(CCCCCC)C(=O)O (stereo not drawn) [Extractant 196]
Extraction of Ni, Co and Mn from the battery material solution ([7]; O/A 8:1, pH greater than 6.8): almost completely extracted | Extraction rate of Ca and Mg from the battery material solution ([7]; O/A 8:1, pH greater than 6.8): low extraction rate | Extraction of Ni, Co and Mn from the battery material solution ([7]; pH less than 7.2, O/A 5:1 and 8:1): selectively extracted | Extraction ability for rare earth ions (FIG. 5) [9]: gradually decreases from heavy rare earths to light rare earths | Saturation capacity for Ni^2+ [10]: about 16.9 g/L
